According to ChEMBL document CHEMBL4371019, “Sanguiin H-11 from Sanguisorbae radix protects HT22 murine hippocampal cells against glutamate-induced death” (2019):
Activity calls are given as the source filed them. The calls are words filed in the database; no cut-off is given here.

Legend:
HT-22 [1] = assay: Inhibition of glutamate-induced apoptosis in mouse HT22 cells assessed as apoptotic cells at 10 uM after 12 hrs by AlexaFluor 488-Annexin V/propidium iodide staining-based assay (reference value: 54%); assay type: functional; conditions: HT-22, 12 h
HT-22 [2] = assay: Neuroprotective activity against glutamate-induced neuronal cell death in mouse HT22 cells assessed as reduction in intracellular calcium level at 10 to 20 uM after 8 hrs by fluorescence microscopic analysis; assay type: functional, cell-based
[3] = target: Mitogen-activated protein kinase 1 and 3 (ERK2 and ERK1) (Mus musculus) (UniProt P63085+Q63844); assay: Inhibition of glutamate-induced ERK1/2 phosphorylation in mouse HT22 cells at 10 to 20 after 8 hrs by Western blot analysis; assay type: cell-based
Mitogen-activated protein kinase 1 and 3 (ERK2 and ERK1) (Mus musculus), sequence (P63085 whole entry, looked up): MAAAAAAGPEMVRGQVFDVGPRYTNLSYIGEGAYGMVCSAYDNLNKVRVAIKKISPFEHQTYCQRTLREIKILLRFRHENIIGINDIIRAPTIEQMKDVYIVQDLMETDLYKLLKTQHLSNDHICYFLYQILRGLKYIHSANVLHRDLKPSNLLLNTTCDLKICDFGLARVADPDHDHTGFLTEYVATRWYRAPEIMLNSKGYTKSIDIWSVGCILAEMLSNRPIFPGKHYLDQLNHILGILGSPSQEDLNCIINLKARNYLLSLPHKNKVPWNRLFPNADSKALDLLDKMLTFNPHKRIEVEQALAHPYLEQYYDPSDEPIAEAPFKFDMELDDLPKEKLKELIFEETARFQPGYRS
Mitogen-activated protein kinase 1 and 3 (ERK2 and ERK1) (Mus musculus), sequence (Q63844 whole entry, looked up): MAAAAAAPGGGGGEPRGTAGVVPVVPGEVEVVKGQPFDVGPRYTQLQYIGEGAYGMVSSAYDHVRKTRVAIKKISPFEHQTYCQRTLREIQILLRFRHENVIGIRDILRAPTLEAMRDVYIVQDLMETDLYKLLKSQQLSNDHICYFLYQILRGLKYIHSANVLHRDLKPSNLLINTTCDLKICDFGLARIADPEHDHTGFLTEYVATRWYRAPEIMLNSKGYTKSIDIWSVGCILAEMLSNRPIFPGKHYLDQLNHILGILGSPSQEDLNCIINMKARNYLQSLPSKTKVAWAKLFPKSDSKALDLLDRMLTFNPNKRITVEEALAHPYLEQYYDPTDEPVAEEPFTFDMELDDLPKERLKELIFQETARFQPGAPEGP

HT-22 [4] = assay: Neuroprotective activity against glutamate-induced neuronal cell death in mouse HT22 cells at 10 to 20 uM by microscopic analysis; assay type: functional, cell-based
Mus musculus = organism: Mus musculus; assay: Inhibition of glutamate-induced JNK phosphorylation in mouse HT22 cells at 10 to 20 after 8 hrs by Western blot analysis; assay type: cell-based
[5] = Antioxidant activity assessed as DPPH free radical scavenging activity up to 15 uM incubated for 30 mins; assay type: functional
HT-22 [6] = assay: Inhibition of glutamate-induced apoptosis in mouse HT22 cells assessed as apoptotic cells at 20 uM after 12 hrs by AlexaFluor 488-Annexin V/propidium iodide staining-based assay (reference value: 54%); assay type: functional; conditions: HT-22, 12 h
HT-22 [7] = assay: Antioxidant activity in mouse HT22 cells assessed as reduction in glutamate-induced increase in intracellular reactive oxygen species level at 10 to 20 uM after 8 hrs by H2DCFDA staining based fluorescence microscopic analysis; assay type: functional, cell-based
[8] = target: MAP kinase p38 (Mus musculus) (UniProt P47811+O08911+Q9WUI1+Q9Z1B7); assay: Inhibition of glutamate-induced p38 MAPK phosphorylation in mouse HT22 cells at 10 to 20 after 8 hrs by Western blot analysis; assay type: cell-based
HT-22 [9] = assay: Neuroprotective activity against glutamate-induced neuronal cell death in mouse HT22 cells assessed as increase in cell viability at 20 to 50 uM after 24 hrs by MTT assay; assay type: functional, cell-based
HT-22 [10] = assay: Neuroprotective activity against glutamate-induced neuronal cell death in mouse HT22 cells assessed as increase in cell viability at 0.5 to 5 uM after 24 hrs by MTT assay; assay type: functional, cell-based

Compound | inhibition at 10 µM (HT-22 [1]) [%] | Activity (HT-22 [2]) | inhibition [3] | Activity (HT-22 [4]) | inhibition (Mus musculus) | Activity [5] | inhibition at 20 µM (HT-22 [6]) [%] | Activity (HT-22 [7]) | inhibition [8] | Activity (HT-22 [9]) | Activity (HT-22 [10])
O=C(O[C@@H]1O[C@@H]2COC(=O)c3cc(O)c(O)c(O)c3-c3c(cc(O)c(O)c3O)C(=O)O[C@H]2[C@@H]2OC(=O)c3cc(O)c(O)c(O)c3-c3c(cc(O)c(O)c3O)C(=O)O[C@@H]12)c1cc(O)c(O)c(O)c1 | 12.7 | Active | Active | Active | Active | Active | 8.5 | Active | Active | Active | 
CC(=O)N[C@@H](CS)C(=O)O |  |  |  |  |  |  |  |  |  |  | Active
